assay: recombinant barcode read abundance after kanamycin selection (control-corrected) (log10(CPM+1)); higher = more efficient recombination; sequences stand for … in AGTGCAGAGAAAATCGGCCAGTTTTCTCTGCCTGCAGTCCGCATGCCGT…AGATTTATGCAGCGGACTGCCTTTCTCCCAAAGTGATAAACCGGACAGTATCATGGACCGGTTTTCCCGGTAATCCGTATTTGCAAGGTTGGTTTCACT; site = the 11-nt target
Procedure, shortened: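 A vector carrying a T7-inducible recombinase and the last 73 bp of the bridge RNA received, by Gibson cloning, oligos encoding a promoter, target, barcode and the first 104 bridge RNA bases under J23119. The pooled constructs entered E. coli together with a donor plasmid by electroporation. Selection used chloramphenicol/ampicillin/kanamycin with 0.1 mM IPTG, with chloramphenicol/ampicillin LB agar as the control, each in two replicates. Recombination efficiency is the averaged, control-corrected counts-per-million of barcodes at recombinant junctions, reported as log10(CPM+1).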
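Further: IS621 recombinase and bridge RNA in Escherichia coli cells.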

| Sequence | recombinant barcode read abundance (log10) |
| --- | --- |
| CAGGGCCCTTGGGTTCTAACCTGTTGCCT (site GAGGGCCCTAG) | 0.527 |
| CAGGGCCCTTGGGTTCTAACCTGTTGCCT (site TAGGGCCCTAG) | 0.397 |
| CAGGGGACTTGGGTTCTAACCTGTTGCCA (site CAGGGGACTTG) | 1.04 |
| CAGGGGACTTGGGTTCTAACCTGTTGCCA (site CCGTGGACTTG) | 0.217 |
| CAGGGGCCTTGGGTTCTAACCTGTTGCCT (site CAGAGGCCTAG) | 0.0366 |
| CAGGGGCCTTGGGTTCTAACCTGTTGCCT (site CAGCGGCCTAG) | 0.187 |
| CAGGGGCCTTGGGTTCTAACCTGTTGCCT (site CAGGGGCCTAG) | 1.97 |
| CAGGGGCCTTGGGTTCTAACCTGTTGCCT (site CAGTGGCCTAG) | 0.185 |
| CAGGTACCTTGGGTTCTAACCTGTTGCAG (site CAGGTACCTAT) | 0.368 |
| CAGGTACCTTGGGTTCTAACCTGTTGCAG (site CAGGTACCTCT) | 3.12 |
| CAGGTGCCTTGGGTTCTAACCTGTTGCCT (site CAGGTGCCTAG) | 2.25 |
| CAGGTGCCTTGGGTTCTAACCTGTTGCCT (site CCGGTGCCTAG) | 0.216 |
| CAGGTGCCTTGGGTTCTAACCTGTTGCCT (site CGGGTGCCTAG) | 0.122 |
| CAGGTGCCTTGGGTTCTAACCTGTTGCCT (site CTGGTGCCTAG) | 0.526 |
| CAGTAGTCTTGGGTTCTAACCTGTTGCCT (site CAGTAATCTAG) | 0.579 |
| CAGTAGTCTTGGGTTCTAACCTGTTGCCT (site CAGTACTCTAG) | 0.155 |

| Sequence | recombinant barcode read abundance (log10) |
| --- | --- |
| CAGTAGTCTTGGGTTCTAACCTGTTGCCT (site CAGTAGTCTAG) | 1.07 |
| CAGTAGTCTTGGGTTCTAACCTGTTGCCT (site CAGTATTCTAG) | 0.0913 |
| CAGTATTCTTGGGTTCTAACCTGTTGCCT (site CAGTAATCTAG) | 0.0186 |
| CAGTATTCTTGGGTTCTAACCTGTTGCCT (site CAGTACTCTAG) | 0.116 |
| CAGTATTCTTGGGTTCTAACCTGTTGCCT (site CAGTAGTCTAG) | 0.0496 |
| CAGTATTCTTGGGTTCTAACCTGTTGCCT (site CAGTATTCTAG) | 0.702 |
| CAGTCTACTTGGGTTCTAACCTGTTGCGT (site CAGTCTACTAC) | 0.308 |
| CAGTCTACTTGGGTTCTAACCTGTTGCGT (site TCAAGCCCTCT) | 0.292 |
| CAGTCTGCTTGGGTTCTAACCTGTTGCCT (site CAATCTGCTAG) | 0.141 |
| CAGTCTGCTTGGGTTCTAACCTGTTGCCT (site CACTCTGCTAG) | 0.0321 |
| CAGTCTGCTTGGGTTCTAACCTGTTGCCT (site CAGTCTGCTAG) | 0.512 |
| CAGTCTGCTTGGGTTCTAACCTGTTGCCT (site CATTCTGCTAG) | 0.182 |
| CAGTTAGCTTGGGTTCTAACCTGTTGCCT (site CAGTTAGCTAG) | 0.642 |
| CAGTTAGCTTGGGTTCTAACCTGTTGCCT (site CAGTTCGCTAG) | 0.182 |
| CAGTTAGCTTGGGTTCTAACCTGTTGCCT (site CAGTTGGCTAG) | 0.0405 |
| CAGTTAGCTTGGGTTCTAACCTGTTGCCT (site CAGTTTGCTAG) | 0.192 |

— the supplement of paper PMC11208160
